Experimental data: PMC12264794, “Homoleptic complexes of titanium(IV) fused with O^N^O Schiff base derivatives: design, BSA–DNA interaction, molecular docking, DFT and cytotoxicity” (RSC Advances, 2025)

How the values were obtained:
HeLa cells = assay: Flow cytometry cell cycle analysis by PI staining; type: cell-based, human; conditions: 48 h, complexes at IC50, cis-platin 5 μM
Description: A flow cytometer was also used to do the apoptotic assessment. HeLa cells (5 × 10^5) were seeded onto 6-well plates using Dulbecco's Modified Eagle Medium paper (DMEM) with 10% FBS. The plates were incubated overnight at 37 °C with 95% air and 5% CO2. […] Following trypsinization, the cells were collected, cleaned with PBS, and fixed for 24 hours at 2–6 °C in ice-cold 70% ethanol. Centrifugation was used to remove the ethanol, and cold PBS was used twice to wash the cell pellets. Later the cells were stained with propidium iodide (PI, 1 mg mL^−1) and incubated for 30 min. Flow cytometric analysis was performed using a FACS scanner and the Becton Dickinson cell search program at 595 nm and the distribution of cells in various cell cycle phases was determined.[69,70]
Through cell cycle analysis, the mechanism of cancer cell death caused by the complexes was evaluated. Anticancer drugs promote growth-inhibitory action in cancer cells by a variety of mechanisms, one of which is dysfunction in the regulation of the cell cycle.[32] For example, cis-platin inhibits DNA transcription in cells by stopping the cell cycle in the S and G2/M phases. PI staining and flow cytometry were used to examine the ability of the complexes to modify the cell cycle (Fig. 19).

CT-DNA = conditions: constant used in eqn (6); no reference given; cited from earlier work

Row | SMILES | G0/G1 phase (HeLa cells) | M Phase (HeLa cells) | S Phase (HeLa cells) | Sub-G0 phase (HeLa cells) | KEtBr, DNA binding constant of EB (CT-DNA)
1 | N.N.[Cl][Pt][Cl] [Cis-platin, cis-platin, reference compound] | 27.12% | 17.52% | 10.11% | 45.25% | 
2 | CC[n+]1c(-c2ccccc2)c2cc(N)ccc2c2ccc(N)cc21 [EB, ethidium bromide] |  |  |  |  | 1e+07 M⁻¹
